Data on two compounds can be found in publication PMC9851200, “Multiparameter phenotypic screening for endogenous TFEB and TFE3 translocation identifies novel chemical series modulating lysosome function” (Autophagy, 2022).

Holding throughout (assay type): binding
Assay [1] concerns the target kinases (KINOMEscan panel) (Homo sapiens, UniProt P11802). To be noted: NEW KINOMEscan; for KINOMEscan CDK4-cyclinD3: kinase CDK4-cyclinD3; for KINOMEscan CDK4: kinase CDK4.
Assay [2] concerns the target T1, kinases (KINOMEscan panel) (Homo sapiens, UniProt Q8IWQ3).
T1 sequence (Q8IWQ3 1-736): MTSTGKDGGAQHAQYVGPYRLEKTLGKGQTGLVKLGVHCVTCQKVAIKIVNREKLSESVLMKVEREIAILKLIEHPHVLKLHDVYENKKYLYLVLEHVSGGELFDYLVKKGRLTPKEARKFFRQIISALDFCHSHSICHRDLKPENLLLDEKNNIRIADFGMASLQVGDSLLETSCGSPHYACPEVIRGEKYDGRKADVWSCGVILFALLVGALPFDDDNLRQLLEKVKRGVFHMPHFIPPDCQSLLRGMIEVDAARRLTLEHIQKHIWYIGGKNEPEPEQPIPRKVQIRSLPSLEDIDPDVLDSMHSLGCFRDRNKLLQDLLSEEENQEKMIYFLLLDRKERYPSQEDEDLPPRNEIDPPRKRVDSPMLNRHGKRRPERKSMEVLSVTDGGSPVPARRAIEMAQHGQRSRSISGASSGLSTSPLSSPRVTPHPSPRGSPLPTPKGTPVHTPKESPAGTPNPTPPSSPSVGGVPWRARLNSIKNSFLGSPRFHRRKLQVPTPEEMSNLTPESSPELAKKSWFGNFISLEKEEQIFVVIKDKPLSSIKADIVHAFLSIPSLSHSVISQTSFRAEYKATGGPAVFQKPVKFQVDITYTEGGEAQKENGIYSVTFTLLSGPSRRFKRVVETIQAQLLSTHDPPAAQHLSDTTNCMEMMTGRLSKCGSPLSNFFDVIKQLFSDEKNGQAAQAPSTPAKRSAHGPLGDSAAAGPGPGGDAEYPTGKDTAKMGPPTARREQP
To be noted: kinase BRSK2; NEW KINOMEscan.

In assay [3] the target is T2, kinases (KINOMEscan panel) (Homo sapiens, UniProt Q92630).
T2 sequence (Q92630 1-601): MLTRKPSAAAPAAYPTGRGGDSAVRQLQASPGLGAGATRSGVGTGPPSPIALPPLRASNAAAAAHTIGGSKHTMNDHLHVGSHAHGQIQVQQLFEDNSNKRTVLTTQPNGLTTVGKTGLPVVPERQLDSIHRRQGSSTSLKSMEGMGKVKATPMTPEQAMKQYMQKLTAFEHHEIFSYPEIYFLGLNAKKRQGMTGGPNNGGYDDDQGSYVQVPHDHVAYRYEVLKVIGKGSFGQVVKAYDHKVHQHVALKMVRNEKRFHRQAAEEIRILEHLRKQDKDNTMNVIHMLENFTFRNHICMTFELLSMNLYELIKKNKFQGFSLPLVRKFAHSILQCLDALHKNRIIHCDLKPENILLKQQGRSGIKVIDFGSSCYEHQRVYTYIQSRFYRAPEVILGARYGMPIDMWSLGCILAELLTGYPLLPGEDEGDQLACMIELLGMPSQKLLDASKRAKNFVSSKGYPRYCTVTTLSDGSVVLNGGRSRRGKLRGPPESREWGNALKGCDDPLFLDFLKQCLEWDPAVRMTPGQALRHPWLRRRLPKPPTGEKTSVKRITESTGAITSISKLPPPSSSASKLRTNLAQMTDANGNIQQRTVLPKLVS
As to conditions: DYRK2; NEW KINOMEscan.

The target of assay [4] is kinases (KINOMEscan panel) (Homo sapiens, UniProt Q9BWU1). As to conditions: kinase CDK19; NEW KINOMEscan.
Assay [5] addresses T3, kinases (KINOMEscan panel) (Homo sapiens, UniProt Q9NRH2).
T3 sequence (Q9NRH2 1-765): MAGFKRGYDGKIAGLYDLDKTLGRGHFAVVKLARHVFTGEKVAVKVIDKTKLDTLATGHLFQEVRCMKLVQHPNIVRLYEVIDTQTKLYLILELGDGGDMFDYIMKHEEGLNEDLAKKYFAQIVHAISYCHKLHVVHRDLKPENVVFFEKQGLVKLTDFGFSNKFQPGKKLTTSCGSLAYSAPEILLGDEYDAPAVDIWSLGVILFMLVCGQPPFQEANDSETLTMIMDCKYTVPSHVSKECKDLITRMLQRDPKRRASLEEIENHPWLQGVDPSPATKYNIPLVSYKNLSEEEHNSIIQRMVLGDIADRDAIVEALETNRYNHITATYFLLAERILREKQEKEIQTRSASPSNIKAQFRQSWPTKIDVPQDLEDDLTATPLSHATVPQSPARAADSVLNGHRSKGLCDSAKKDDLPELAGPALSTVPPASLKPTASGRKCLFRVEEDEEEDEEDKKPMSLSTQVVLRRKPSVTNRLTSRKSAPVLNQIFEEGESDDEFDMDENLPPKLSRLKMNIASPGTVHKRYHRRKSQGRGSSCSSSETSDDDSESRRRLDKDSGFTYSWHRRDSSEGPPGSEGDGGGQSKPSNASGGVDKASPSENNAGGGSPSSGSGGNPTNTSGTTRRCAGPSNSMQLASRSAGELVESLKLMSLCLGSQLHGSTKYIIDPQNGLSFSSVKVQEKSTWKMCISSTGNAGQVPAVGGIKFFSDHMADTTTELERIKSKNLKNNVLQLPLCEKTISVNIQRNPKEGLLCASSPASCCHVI
As to conditions: kinase SNRK; NEW KINOMEscan.

kinases (KINOMEscan panel) (Homo sapiens, UniProt P11802), sequence (P11802 whole entry): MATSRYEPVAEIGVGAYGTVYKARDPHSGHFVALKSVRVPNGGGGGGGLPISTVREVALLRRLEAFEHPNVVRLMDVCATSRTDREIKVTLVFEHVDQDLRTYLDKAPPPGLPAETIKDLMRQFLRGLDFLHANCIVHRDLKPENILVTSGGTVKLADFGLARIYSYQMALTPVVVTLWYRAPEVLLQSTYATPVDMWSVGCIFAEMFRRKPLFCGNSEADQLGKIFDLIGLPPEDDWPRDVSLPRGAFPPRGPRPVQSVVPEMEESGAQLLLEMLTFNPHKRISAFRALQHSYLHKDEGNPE
kinases (KINOMEscan panel) (Homo sapiens, UniProt Q9BWU1), sequence (Q9BWU1 whole entry): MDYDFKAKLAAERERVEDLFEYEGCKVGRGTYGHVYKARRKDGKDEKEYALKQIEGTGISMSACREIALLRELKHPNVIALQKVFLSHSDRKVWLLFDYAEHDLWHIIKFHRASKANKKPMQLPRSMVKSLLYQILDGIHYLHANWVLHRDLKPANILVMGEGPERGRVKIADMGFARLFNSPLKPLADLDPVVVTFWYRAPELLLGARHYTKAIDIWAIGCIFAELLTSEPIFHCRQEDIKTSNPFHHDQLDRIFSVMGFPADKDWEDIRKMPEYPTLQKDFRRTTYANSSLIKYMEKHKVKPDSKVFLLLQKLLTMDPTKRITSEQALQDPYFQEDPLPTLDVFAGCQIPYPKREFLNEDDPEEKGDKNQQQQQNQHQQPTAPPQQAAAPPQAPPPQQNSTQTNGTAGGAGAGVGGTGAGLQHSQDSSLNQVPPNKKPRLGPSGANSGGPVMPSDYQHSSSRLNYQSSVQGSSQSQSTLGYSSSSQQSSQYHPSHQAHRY

In the case of `Cc1cccc(-c2nc(N(C)c3ccc4ncsc4c3)c3ccccc3n2)n1` [NK-161], in assay [1], the “KINOMEscan CDK4-cyclinD1 (???) CCND1” value is 18, the “KINOMEscan CDK4-cyclinD3” value was determined as 0 and the “KINOMEscan CDK4” value stood at 0. Moreover, the “KINOMEscan BRSK2” value in assay [2] is 12. The “KINOMEscan DYRK2” value in assay [3] amounted to 12. Moreover, the “KINOMEscan CDK19” value in assay [4] is given as 4. Also, the “KINOMEscan SNRK” value in assay [5] was determined as 7.
Take `Cc1cccc(-c2nc(Nc3ccc4nn(C)cc4c3)c3ccccc3n2)n1` [NK167]: in assay [1], the “KINOMEscan CDK4-cyclinD1 (???) CCND1” value amounted to 10, the “KINOMEscan CDK4-cyclinD3” value is 0 and the “KINOMEscan CDK4” value was 0. Moreover, in assay [2], the “KINOMEscan BRSK2” value is 9. Further, the “KINOMEscan DYRK2” value in assay [3] was determined as 0. In addition, the “KINOMEscan CDK19” value in assay [4] was 24. The “KINOMEscan SNRK” value in assay [5] is recorded as 6.
